Test results taken from US20230095520A1, “PHARMACEUTICAL COMPOSITION FOR PREVENTING OR TREATING CANCER COMPRISING AZOLE DERIVATIVES OR PHARMACEUTICALLY ACCEPTABLE SALT THEREOF” (Yungjin Pharm. Co., Ltd., priority 2020, published 2023).
pIC50: −log10 of the molar value.

target: T1, Recombinant purified human CDK7 (Homo sapiens, UniProt P50613); test: CDK7 activity inhibition, ADP-Glo kinase assay; format: biochemical; conditions: ATP 90 μM, MBP substrate, 2 hours 30° C.
T1 construct: purchased ThermoFisher PV3868
T1 sequence (P50613 whole entry): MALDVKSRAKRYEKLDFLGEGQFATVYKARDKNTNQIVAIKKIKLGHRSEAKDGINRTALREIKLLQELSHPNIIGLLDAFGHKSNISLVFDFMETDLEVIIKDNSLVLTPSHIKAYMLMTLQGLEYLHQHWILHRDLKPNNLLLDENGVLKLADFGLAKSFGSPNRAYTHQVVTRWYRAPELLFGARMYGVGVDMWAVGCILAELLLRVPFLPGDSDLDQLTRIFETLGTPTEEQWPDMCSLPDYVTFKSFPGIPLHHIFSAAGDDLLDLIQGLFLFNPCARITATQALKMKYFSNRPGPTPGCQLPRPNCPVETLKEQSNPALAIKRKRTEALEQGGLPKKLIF
T1 sequence (P51946 whole entry partner): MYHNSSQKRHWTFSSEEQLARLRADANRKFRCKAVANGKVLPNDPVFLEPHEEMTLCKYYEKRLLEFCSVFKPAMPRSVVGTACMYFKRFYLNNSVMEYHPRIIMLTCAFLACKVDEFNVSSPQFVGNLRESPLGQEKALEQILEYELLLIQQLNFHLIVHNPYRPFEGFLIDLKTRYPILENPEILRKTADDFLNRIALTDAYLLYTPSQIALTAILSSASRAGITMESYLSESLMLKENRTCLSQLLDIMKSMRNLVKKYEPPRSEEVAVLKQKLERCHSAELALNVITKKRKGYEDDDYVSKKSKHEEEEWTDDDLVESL
T1 sequence (P51948 whole entry partner): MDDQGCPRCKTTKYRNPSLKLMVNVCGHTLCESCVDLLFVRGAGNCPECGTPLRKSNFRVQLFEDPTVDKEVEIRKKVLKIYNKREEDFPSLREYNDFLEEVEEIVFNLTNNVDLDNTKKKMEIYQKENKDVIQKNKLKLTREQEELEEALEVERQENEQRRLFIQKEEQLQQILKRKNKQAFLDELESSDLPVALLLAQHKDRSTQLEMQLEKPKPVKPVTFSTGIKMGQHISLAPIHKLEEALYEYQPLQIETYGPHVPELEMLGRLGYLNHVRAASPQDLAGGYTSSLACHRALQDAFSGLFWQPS
Experimental: Recombinant purified human CDK7 (ThermoFisher, PV3868) and ADP Glo Kinase Assay Kit (Promega, V9102) were used. CDK7 was diluted with 1× kinase reaction buffer (40 mM Tris-Cl, pH 7.5, 20 mM MgCl2, 0.1 mg/ml BSA and 50 μM DTT) and added to a 96 well plate (CDK7 final concentration per reaction: 50 ng). It was finally treated with the compound of the present invention to a 1% DMSO aqueous solution, and a substrate cocktail containing ATP (final concentration of 90 μM) and 0.2 μg/μl MBP (myelin basic protein) in a total of 25 μl reaction mass was added to a 96 well plate, thereby initiating the enzymatic reaction. After 2 hours of incubation (30° C.), an equal volume (25 μl per reaction) of ADP Glo was added and incubated at room temperature for 60 minutes (30° C.). Thereafter, kinase detection reagent (50 μl per reaction) was added and incubated at room temperature for 30 minutes (30° C.). The kinase activity was measured by the chemiluminescence method according to the ADP Glo Kinase Assay Kit instruction manual, and the CDK7 inhibitory activity of the compounds of the present invention was calculated.

| IC50 [nM] | Structure (SMILES) |
| --- | --- |
| 40 | C=CC(=O)Nc1ccc(-c2cccc(C(C)C(=O)Nc3ncc(C4CC4)s3)c2)cn1 (stereo not drawn) [Compound 2, N-(5-(3-(1-((5-cyclopropylthiazol-2-yl)amino)-1-oxopropan-2-yl)phenyl)pyridin-2-yl)acrylamide] |
| 35 | CC(C(=O)Nc1ncc(C2CC2)s1)c1cccc(-c2ccc(NC(=O)/C=C/CN(C)C)nc2)c1 (stereo not drawn) [Compound 6, (E)-N-(5-(3-(1-((5-cyclopropylthiazol-2-yl)amino)-1-oxopropan-2-yl)phenyl)pyridin-2-yl)-4-(dimethylamino)but-2-enamide] |
| 92 | C=CC(=O)Nc1ccc(-c2csc(C(C)C(=O)Nc3ncc(Cl)s3)c2)cn1 (stereo not drawn) [Compound 76, N-(5-(5-(1-((5-chlorothiazol-2-yl)amino)-1-oxopropan-2-yl)thiophen-3-yl)pyridin-2-yl)acrylamide] |
| 31 | CC(C(=O)Nc1ncc(C(F)(F)F)s1)c1cncc(-c2ccc(NC(=O)/C=C/CN(C)C)nc2)c1 (stereo not drawn) [Compound 107, (E)-4-(dimethylamino)-N-(5′-(1-oxo-1-((5-(trifluoromethyl)thiazol-2-yl)amino)propan-2-yl)-[3,3′-bipyridin]-6-yl)but-2-enamide] |

Further lines, the compound ahead of its results:

| Structure (SMILES) | IC50 [nM] |
| --- | --- |
| C=CC(=O)Nc1cc(F)c(-c2cncc(C(C)C(=O)Nc3ncc(C(F)(F)F)s3)c2)cn1 (stereo not drawn) [Compound 84, N-(4-fluoro-5′-(1-oxo-1-((5-(trifluoromethyl)thiazol-2-yl)amino)propan-2-yl)-[3,3′-bipyridin]-6-yl)acrylamide] | 68 |
| C=CC(=O)Nc1ncc(-c2cncc(C(C)C(=O)Nc3ncc(C(F)(F)F)s3)c2)cc1C#N (stereo not drawn) [Compound 88, N-(5-cyano-5′-(1-oxo-1-((5-(trifluoromethyl)thiazol-2-yl)amino)propan-2-yl)-[3,3′-bipyridin]-6-yl)acrylamide] | 16 |
| C[C@H](C(=O)Nc1ncc(C(F)(F)F)s1)c1cccc(-c2cnc(NC(=O)/C=C/CN3CCOCC3)cn2)c1 [Compound 92, (S,E)-4-morpholino-N-(5-(3-(1-oxo-1-((5-(trifluoromethyl)thiazol-2-yl)amino)propan-2-yl)phenyl)pyrazin-2-yl)but-2-enamide] | 42 |
| C[C@H](C(=O)Nc1ncc(Cl)s1)c1cccc(-c2cnc(NC(=O)/C=C/CN(C)C)cn2)c1 [Compound 93, (S,E)-N-(5-(3-(1-((5-chlorothiazol-2-yl)amino)-1-oxopropan-2-yl)phenyl)pyrazin-2-yl)-4-(dimethylamino)but-2-enamide] | 93 |
| C[C@H](C(=O)Nc1ncc(Cl)s1)c1cccc(-c2cnc(NC(=O)/C=C/CN3CC4CC3CO4)cn2)c1 (stereo partly drawn) [Compound 94, (E)-4-(2-oxa-5-azabicyclo[2.2.1]heptan-5-yl)-N-(5-(3-((S)-1-((5-chlorothiazol-2-yl)amino)-1-oxopropan-2-yl)phenyl)pyrazin-2-yl)but-2-enamide] | 14.5 |
| C[C@H](C(=O)Nc1ncc(C(F)(F)F)s1)c1cccc(-c2cnc(NC(=O)/C=C/CN3CCN(C)CC3)cn2)c1 [Compound 95, (S,E)-4-(4-methylpiperazin-1-yl)-N-(5-(3-(1-oxo-1-((5-(trifluoromethyl)thiazol-2-yl)amino)propan-2-yl)phenyl)pyrazin-2-yl)but-2-enamide] | 80.4 |
| C[C@H](C(=O)Nc1ncc(Cl)s1)c1cccc(-c2cnc(NC(=O)/C=C/CN3CCOCC3)cn2)c1 [Compound 98, (S,E)-N-(5-(3-(1-((5-chlorothiazol-2-yl)amino)-1-oxopropan-2-yl)phenyl)pyrazin-2-yl)-4-morpholinobut-2-enamide] | 87 |
| COc1cc(-c2cccc([C@H](C)C(=O)Nc3ncc(C(F)(F)F)s3)c2)cnc1NC(=O)/C=C/CN(C)C [Compound 100, (S,E)-4-(dimethylamino)-N-(3-methoxy-5-(3-(1-oxo-1-((5-(trifluoromethyl)thiazol-2-yl)amino)propan-2-yl)phenyl)pyridin-2-yl)but-2-enamide] | 9.8 |
| C[C@H](C(=O)Nc1ncc(C(F)(F)F)s1)c1cccc(-c2cnc(NC(=O)/C=C/CN3CCCC3)cn2)c1 [Compound 102, (S,E)-N-(5-(3-(1-oxo-1-((5-(trifluoromethyl)thiazol-2-yl)amino)propan-2-yl)phenyl)pyrazin-2-yl)-4-(pyrrolidin-1-yl)but-2-enamide] | 13 |
| C[C@H](C(=O)Nc1ncc(C(F)(F)F)s1)c1cccc(-c2cnc(NC(=O)/C=C/CN3CCC3)cn2)c1 [Compound 103, (S,E)-4-(azetidin-1-yl)-N-(5-(3-(1-oxo-1-((5-(trifluoromethyl)thiazol-2-yl)amino)propan-2-yl)phenyl)pyrazin-2-yl)but-2-enamide] | 13 |
| C[C@H](C(=O)Nc1ncc(N(C)C)s1)c1cccc(-c2cnc(NC(=O)/C=C/CN(C)C)cn2)c1 [Compound 106, (S,E)-4-(dimethylamino)-N-(5-(3-(1-((5-(dimethylamino)thiazol-2-yl)amino)oxopropan-2-yl)phenyl)pyrazin-2-yl)but-2-enamide] | 71 |
| COc1nc(-c2cccc([C@H](C)C(=O)Nc3ncc(C(F)(F)F)s3)c2)cnc1NC(=O)/C=C/CN(C)C [Compound 109, (S,E)-4-(dimethylamino)-N-(3-methoxy-5-(3-(1-oxo-1-((5-(trifluoromethyl)thiazol-2-yl)amino)propan-2-yl)phenyl)pyrazin-2-yl)but-2-enamide] | 8.2 |
| C[C@H](C(=O)Nc1ncc(C(F)(F)F)s1)c1cccc(-c2cnc3c(c2)CCN3C(=O)/C=C/CN(C)C)c1 [Compound 110, (S,E)-2-(3-(1-(4-(dimethylamino)but-2-enoyl)-2,3-dihydro-1H-pyrrolo[2,3-b]pyridin-5-yl)phenyl)-N-(5-(trifluoromethyl)thiazol-2-yl)propanamide] | 5.9 |
| C[C@H](C(=O)Nc1ncc(C(F)(F)F)s1)c1cccc(-c2cnc(NC(=O)/C=C/CN(C)C)c(C(F)(F)F)c2)c1 [Compound 111, (S,E)-4-(dimethylamino)-N-(5-(3-(1-oxo-1-((5-(trifluoromethyl)thiazol-2-yl)amino)propan-2-yl)phenyl)-3-(trifluoromethyl)pyridin-2-yl)but-2-enamide] | 9.5 |

tested on: MV-4-11 cells; test: MV-4-11 cell proliferation inhibition (CCK-8); format: cell-based; conditions: Homo sapiens, MV4-11, MV-4-11, compound concentration 100 nM, 72 hours, read-out: Inhibition rate (%)
Experimental: MV-4-11 cells are one of the acute myeloid leukemia cells with a Fms-like tyrosine kinase (FLT3) gene mutation, and these cells are used to test inhibition of proliferation and survival of leukemia cells.
MV-4-11 cells cultured in a 96-well cell culture plate were treated with the compound of the present invention and cultured for 72 hours. Thereafter, the antiproliferative effect of the compound was assayed by the CCK-8 method using a tetrazolium salt.

| Structure (SMILES) | inhibition at 0.1 µM [%] |
| --- | --- |
| C=CC(=O)Nc1ccc(-c2cc(C(C)C(=O)Nc3ncc(C4CC4)s3)ccn2)cn1 (stereo not drawn) [Compound 50, N-(4-(1-((5-cyclopropylthiazol-2-yl)amino)-1-oxopropan-2-yl)-[2,3′-bipyridin]-6′-yl)acrylamide] | 100 |

same assay, conditions: Homo sapiens, MV4-11, MV-4-11 proliferation, 72 hours

| pIC50 | Structure (SMILES) |
| --- | --- |
| 7.76 | C=CC(=O)Nc1ccc(-c2cc(C(C)C(=O)Nc3ncc(C4CC4)s3)ccn2)cn1 (stereo not drawn) [Compound 50, N-(4-(1-((5-cyclopropylthiazol-2-yl)amino)-1-oxopropan-2-yl)-[2,3′-bipyridin]-6′-yl)acrylamide] |
| 8.04 | C=CC(=O)Nc1cnc(-c2cncc(C(C)C(=O)Nc3ncc(Cl)s3)c2)cn1 (stereo not drawn) [Compound 61, N-(5-(5-(1-((5-chlorothiazol-2-yl)amino)-1-oxopropan-2-yl)pyridin-3-yl)pyrazin-2-yl)acrylamide] |
| 7.64 | C=CC(=O)Nc1cnc(-c2cncc(C(C)C(=O)Nc3ncc(OC)s3)c2)cn1 (stereo not drawn) [Compound 66, N-(5-(5-(1-((5-methoxythiazol-2-yl)amino)-1-oxopropan-2-yl)pyridin-3-yl)pyrazin-2-yl)acrylamide] |
| 8.49 | C=CC(=O)Nc1cnc(-c2cncc(C(C)C(=O)Nc3ncc(SC)s3)c2)cn1 (stereo not drawn) [Compound 71, N-(5-(5-(1-((5-(methylthio)thiazol-2-yl)amino)-1-oxopropan-2-yl)pyridin-3-yl)pyrazin-2-yl)acrylamide] |
| 7.78 | C=CC(=O)Nc1ccc(-c2csc(C(C)C(=O)Nc3ncc(CC)s3)c2)cn1 (stereo not drawn) [Compound 77, N-(5-(5-(1-((5-ethylthiazol-2-yl)amino)-1-oxopropan-2-yl)thiophen-3-yl)pyridin-2-yl)acrylamide] |
